Reference: patent publication US6534077B2, “Organosiloxane containing modified groups in agricultural compositions” (Crompton Corporation, priority 2000, dated 2003)

Tested on: Barnyardgrass (Echinochloa crus-galli)
Experiment: Effect of adjuvant on glyphosate-IPA efficacy on barnyardgrass with simulated rainfall
Type: in vivo
Details: 0.75 wt % glyphosate-IPA without adjuvant, rainfall 2 h after application
Description: Barnyardgrass (Echinochloa crus-galli) 10 cm in height were treated with 0.75 wt % (a.i.) glyphosate, isopropylamine salt (Monsanto), either alone, or plus a spray adjuvant (0.05 and 0.1 wt % respectively). The spray was applied at 100 L/ha using a T-Jet 8002E nozzle. The plants were subjected to simulated rainfall (2.5 cm), 2 h after herbicide application, to determine the rainfastening ability of the adjuvants. Plants were evaluated at week 1 and 2 weeks after treatment, by visual observation, relative to the untreated check. A score of 0 means no plant injury, while a score of 100 indicates total control (burndown, with no regrowth).

Structure (SMILES): CC(C)N.O=C(O)CNCP(=O)(O)O [glyphosate-IPA, glyphosate, isopropylamine salt]
- Percent Control 1 WAT (1 week after treatment): 7.5d %
- Percent Control 2 WAT (2 weeks after treatment): 18.75c %
